In paper PMC3849221 (NeuroImage, 2013):
Where “and” joins values, the source holds several entries; their conditions need not be identical. Equal entries are not always repeated. Entries after “also recorded” stand apart in the source; their conditions may differ.

Columns and labels:
[1] = Pharmacological effects of injected 11C-SD5024 in healthy subjects; format: in vivo; conditions: human, injected mass dose 242±47 pmol/kg, n=7
[2] = Measurement of 11C-SD5024 in human arterial plasma; format: in vivo
Lipophilicity LogD7.4 = format: physicochemical; conditions: n-octanol / 0.15 M sodium phosphate buffer pH 7.4, room temperature, 6 measurements
CB1 receptors = CB1 receptors (Macaca mulatta, UniProt Q71SP5); assay: Monkey brain PET with 11C-SD5024, baseline and rimonabant pre-blocked scans; conditions: for VT Baseline: one value per monkey; for VT Preblocked: rimonabant 3 mg/kg i.v.
Chain of CB1 receptors (Q71SP5 whole entry): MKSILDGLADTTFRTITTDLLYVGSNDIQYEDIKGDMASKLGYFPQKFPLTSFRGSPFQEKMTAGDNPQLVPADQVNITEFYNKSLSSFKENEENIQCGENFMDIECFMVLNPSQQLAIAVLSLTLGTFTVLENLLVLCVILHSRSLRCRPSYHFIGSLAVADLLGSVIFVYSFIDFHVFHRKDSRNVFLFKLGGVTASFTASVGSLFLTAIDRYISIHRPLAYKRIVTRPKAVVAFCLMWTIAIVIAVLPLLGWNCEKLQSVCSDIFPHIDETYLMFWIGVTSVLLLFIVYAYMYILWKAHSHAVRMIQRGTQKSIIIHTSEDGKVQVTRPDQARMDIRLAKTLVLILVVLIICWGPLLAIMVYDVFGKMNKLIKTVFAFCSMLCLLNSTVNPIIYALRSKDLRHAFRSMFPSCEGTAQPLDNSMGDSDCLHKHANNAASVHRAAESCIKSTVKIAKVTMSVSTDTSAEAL

CB1 receptor = CB1 receptor (Homo sapiens, UniProt P21554); assay: Human brain PET with 11C-SD5024, compartmental modeling; format: in vivo; conditions: for VT / K1 / k2 / vB (%): one-tissue compartment model, mean±SD; for VT: 120 min; for K1 / k2 / vB (%): seven subjects; for Intersubject Variability of VT (SD/mean): n=7, 120min
Chain of CB1 receptor (P21554 whole entry): as the sequence (Q71SP5 whole entry) above

[3] = monkey striatum, calculated from caudate and putamen (Table 2)

N#[11C]c1ccc(S(=O)(=O)NC(=N)N2CC(c3ccccc3)C(c3ccc(Cl)cc3)=N2)cc1 (stereo not drawn) [^11C-SD5024, [cyano-^11C](−)-3-(4-chlorophenyl)-N-[(4-cyanophenyl)sulfonyl]-4-phenyl-4,5-dihydro-1H-pyrazole-1-carboxamidine]
pharmacological effects (subjective reports, vital signs, laboratory tests) [1]: no pharmacological effects
free fraction in plasma (fP) [2]: too low to measure accurately
time of peak concentration in arterial plasma [2]: 75 s
peak concentration in arterial plasma ([2]; after i.v. injection): 24±8 SUV
fraction of parent as percentage of total plasma radioactivity ([2]; at 75 min): 51±13%
plasma concentrations of 11C-SD5024 relative to 11C-MePPEP ([2]; from 30 to 120 min): five-times
LogD7.4 (Lipophilicity LogD7.4): 3.79±0.09
specific binding as proportion of VT (CB1 receptors; monkey brain, baseline vs receptor blockade with rimonabant 3 mg/kg i.v.): ~ 80%
Specific binding (%) (CB1 receptors; monkey striatum, (VT baseline – VT preblock)/VT baseline): 82%
VT (striatum) Baseline (CB1 receptors; [3]): 2.36 mL·cm^−3
VT (striatum) Preblocked (CB1 receptors; [3]): 0.44 mL·cm^−3
Specific binding (%) (CB1 receptors; monkey, Caudate, (VT baseline – VT preblocked)/VT baseline): 82% and 79%
VT Baseline (CB1 receptors; monkey, Caudate): 1.62 mL · cm^−3 and 2.79 mL · cm^−3
VT Preblocked (CB1 receptors; monkey, Caudate): 0.30 mL · cm^−3 and 0.60 mL · cm^−3
Specific binding (%) (CB1 receptors; monkey, Cerebellum, (VT baseline – VT preblocked)/VT baseline): 79% and 78%
VT Baseline (CB1 receptors; monkey, Cerebellum): 1.27 mL · cm^−3 and 2.34 mL · cm^−3
VT Preblocked (CB1 receptors; monkey, Cerebellum): 0.27 mL · cm^−3 and 0.51 mL · cm^−3
Specific binding (%) (CB1 receptors; monkey, Cingulate, (VT baseline – VT preblocked)/VT baseline): 84% and 82%
VT Baseline (CB1 receptors; monkey, Cingulate): 1.74 mL · cm^−3 and 3.58 mL · cm^−3
Specific binding (%) (CB1 receptors; monkey, Frontal Ctx, (VT baseline – VT preblocked)/VT baseline): 79% and 72%
VT Baseline (CB1 receptors; monkey, Frontal Ctx): 1.77 mL · cm^−3 and 3.13 mL · cm^−3
Specific binding (%) (CB1 receptors; monkey, Lateral Temporal Ctx, (VT baseline – VT preblocked)/VT baseline): 81% and 77%
VT Baseline (CB1 receptors; monkey, Lateral Temporal Ctx): 1.32 mL · cm^−3 and 2.52 mL · cm^−3
Specific binding (%) (CB1 receptors; monkey, Medial Temporal Ctx, (VT baseline – VT preblocked)/VT baseline): 71%
VT Baseline (CB1 receptors; monkey, Medial Temporal Ctx): 1.33 mL · cm^−3 and 2.54 mL · cm^−3
VT Preblocked (CB1 receptors; monkey, Medial Temporal Ctx): 0.39 mL · cm^−3 and 0.75 mL · cm^−3
Specific binding (%) (CB1 receptors; monkey, Occipital Ctx, (VT baseline – VT preblocked)/VT baseline): 78% and 71%
VT Baseline (CB1 receptors; monkey, Occipital Ctx): 1.07 mL · cm^−3 and 2.00 mL · cm^−3
Specific binding (%) (CB1 receptors; monkey, Parietal Ctx, (VT baseline – VT preblocked)/VT baseline): 81% and 74%
VT Baseline (CB1 receptors; monkey, Parietal Ctx): 1.39 mL · cm^−3 and 2.70 mL · cm^−3
Specific binding (%) (CB1 receptors; monkey, Putamen, (VT baseline – VT preblocked)/VT baseline): 83% and 81%
VT Baseline (CB1 receptors; monkey, Putamen): 1.84 mL · cm^−3 and 3.04 mL · cm^−3
VT Preblocked (CB1 receptors; monkey, Putamen): 0.31 mL · cm^−3 and 0.56 mL · cm^−3
Specific binding (%) (CB1 receptors; monkey, Thalamus, (VT baseline – VT preblocked)/VT baseline): 64% and 68%
VT Baseline (CB1 receptors; monkey, Thalamus): 0.83 mL · cm^−3 and 1.85 mL · cm^−3
VT Preblocked (CB1 receptors; monkey, Thalamus): 0.30 mL · cm^−3 and 0.59 mL · cm^−3
time of peak brain activity (CB1 receptors; monkey, baseline): ~ 60 min
brain activity (peak) (CB1 receptors; monkey, baseline, after i.v. injection): ~ 2 SUV
average SE of VT across brain regions (identifiability) (CB1 receptors; monkey, one-compartment model): 3.8%
decrease of brain radioactivity from peak time (40 min) to end of scan (120 min) (CB1 receptor): 20%
time of peak brain activity (CB1 receptor): ~ 40 min
VT (CB1 receptor; Caudate, n=7): 2.31±0.55 mL·cm^−3
K1 (CB1 receptor; Caudate): 0.028±0.005 mL/cm^3/min
k2 (CB1 receptor; Caudate): 0.013 ± 0.003 min⁻¹
vB (%) (CB1 receptor; Caudate): 3.7±0.67%
VT (CB1 receptor; Cerebellum, n=7): 1.93±0.38 mL·cm^−3
K1 (CB1 receptor; Cerebellum): 0.030±0.006 mL/cm^3/min
k2 (CB1 receptor; Cerebellum): 0.016 ± 0.003 min⁻¹
vB (%) (CB1 receptor; Cerebellum): 6.4±0.69%
VT (CB1 receptor; Cingulate, n=7): 2.79±0.58 mL·cm^−3
K1 (CB1 receptor; Cingulate): 0.029±0.006 mL/cm^3/min
k2 (CB1 receptor; Cingulate): 0.011 ± 0.002 min⁻¹
vB (%) (CB1 receptor; Cingulate): 5.0±0.58%
Intersubject Variability of VT (SD/mean) (CB1 receptor; Frontal): 21%
VT (CB1 receptor; Frontal, n=7): 2.57±0.54 mL·cm^−3
K1 (CB1 receptor; Frontal): 0.032±0.006 mL/cm^3/min
k2 (CB1 receptor; Frontal): 0.013 ± 0.003 min⁻¹
vB (%) (CB1 receptor; Frontal): 4.4±0.66%
VT (CB1 receptor; Lateral temporal, n=7): 2.66±0.57 mL·cm^−3
K1 (CB1 receptor; Lateral temporal): 0.032±0.007 mL/cm^3/min
k2 (CB1 receptor; Lateral temporal): 0.012 ± 0.002 min⁻¹
vB (%) (CB1 receptor; Lateral temporal): 5.2±0.64%
VT (CB1 receptor; Medial temporal, n=7): 2.48±0.65 mL·cm^−3
K1 (CB1 receptor; Medial temporal): 0.023±0.005 mL/cm^3/min
k2 (CB1 receptor; Medial temporal): 0.010 ± 0.002 min⁻¹
vB (%) (CB1 receptor; Medial temporal): 5.3±0.58%
VT (CB1 receptor; Occipital, n=7): 2.00±0.38 mL·cm^−3
K1 (CB1 receptor; Occipital): 0.035±0.007 mL/cm^3/min
k2 (CB1 receptor; Occipital): 0.018 ± 0.003 min⁻¹
vB (%) (CB1 receptor; Occipital): 5.9±0.49%
VT (CB1 receptor; Parietal, n=7): 2.44±0.50 mL·cm^−3
K1 (CB1 receptor; Parietal): 0.034±0.006 mL/cm^3/min
k2 (CB1 receptor; Parietal): 0.014 ± 0.003 min⁻¹
vB (%) (CB1 receptor; Parietal): 4.8±0.50%
Intersubject Variability of VT (SD/mean) (CB1 receptor; Putamen): 22%
VT (CB1 receptor; Putamen, n=7): 3.16±0.70 mL·cm^−3
K1 (CB1 receptor; Putamen): 0.038±0.008 mL/cm^3/min
k2 (CB1 receptor; Putamen): 0.012 ± 0.003 min⁻¹
vB (%) (CB1 receptor; Putamen): 4.0±0.79%
peak brain uptake of 11C-SD5024 higher than that of 11C-OMAR by (CB1 receptor; Table 5): about 40%
peak brain uptake of 11C-SD5024 lower than that of 11C-MePPEP by (CB1 receptor; Table 5): about 20%
peak brain uptake of 11C-SD5024 relative to 11C-OMAR (CB1 receptor; Table 5): ~ 1.4 times
VT of 11C-SD5024 relative to 11C-OMAR (CB1 receptor; Table 6): about twice higher; also recorded: about two-fold greater; also recorded: about twice greater
Intersubject Variability of VT (SD/mean) (CB1 receptor; Thalamus): 24%
VT (CB1 receptor; Thalamus, n=7): 1.71±0.41 mL·cm^−3
K1 (CB1 receptor; Thalamus): 0.029±0.006 mL/cm^3/min
k2 (CB1 receptor; Thalamus): 0.017 ± 0.004 min⁻¹
vB (%) (CB1 receptor; Thalamus): 4.6±0.49%
accumulation of radiometabolites in brain (CB1 receptor; from time stability of VT): do not significantly accumulate in brain
intersubject variability for VT (Table 6) (CB1 receptor; n=7): ~ 24%
intersubject variability of VT, average value (CB1 receptor; n=7): 22%
average SE of VT across brain regions (identifiability) (CB1 receptor; one-compartment model): 1.8%
scan duration adequate to measure VT / CB1 receptors (CB1 receptor; truncation of the 120-min scan): 80 min
